Measured values from ChEMBL document CHEMBL3507680, “University of Dundee, Gates Library screen for HepG2 cell viability”.

Assay: Human HepG2 cell viability assay in 384 well format
Format: toxicity, cell-based
Set-up: dose 125 nL, time 70.5 hour; cytotoxicity at 70.5 h: concentration not given beside the values
Details: HepG2 cells, read-out: Inhibition

Compound | cytotoxicity at 70.5 h
CCC[C@@H]1CN(c2ncnc3sccc23)C[C@H]1C(=O)O | -5.95%
O=C(CSc1nccc(-c2ccc3c(c2)OCO3)n1)N1CCOCC1 | -1.22%
CCn1cc(NC(=O)NCC2(N3CCOCC3)CCSC2)cn1 (stereo not drawn) | -1.94%
COC(=O)C1CN(Cc2cc(F)ccc2Br)CCO1 (stereo not drawn) | -3.09%
CSCCCNC(=O)C1CCC(=O)N(C2CCCC2)C1 (stereo not drawn) | -3.06%
COc1cc(N2CC[C@H](O)[C@@H]2Cc2cnn(C)c2)ncn1 | -13.3%
Cc1ccoc1C(=O)N1CC[C@H]2[C@H](C[C@@H](CN3CCCC3)N2C)C1 | 4.09%
O=C([C@H]1CCCO1)N1CCC2(CCCN(CCOc3ccccc3)C2)C1 (stereo partly drawn) | 20.8%
COc1cc(C(C)NCc2ncccc2C)ccc1SC(F)F (stereo not drawn) | 52.4%
COCCOCC(=O)NC(C#N)c1cc(Cl)cc(Cl)c1 (stereo not drawn) | 19.4%
CCCc1cncnc1N1CCC2(CCC(=O)N(CCOC)C2)CC1 | 13.2%
Cc1nn(C(C)(C)C)c(=O)n1CC(=O)NC(C)(C)C | 10.6%
CN1CCN(C2COC3(CCN(Cc4ccc(F)cc4)CC3)C2)CC1 (stereo not drawn) | -11.8%
COc1nn(C)c2c1CCCN(S(=O)(=O)c1cccc(C)c1)C2 | -4.74%
O=C(c1cccc(F)c1)N1C[C@H]2CN(Cc3ccccn3)C[C@H]2C1 | -16%
COc1ccccc1OC1CN(C(=O)C(c2ccc(F)cc2)N(C)C)C1 (stereo not drawn) | -1.1%
CC(Cn1cc(Br)cn1)C(=O)Nc1ccc(C(N)=O)cc1 (stereo not drawn) | 7.39%
CC(NC(=O)NCCOc1ccc(F)c(F)c1)c1nncn1C (stereo not drawn) | -0.895%
CCCC1CN(CC(C)C)C(=O)c2cccnc2O1 (stereo not drawn) | 44%
Cc1cccc(N2CCCC3(C2)CN(S(=O)(=O)C2CC2)CCO3)c1 (stereo not drawn) | -3.02%
CCn1ncnc1CN1CCc2[nH]cnc2C1CCc1ccccc1 (stereo not drawn) | -4.41%
O=C(NCC(O)COc1cccc(F)c1)C1(c2ccc(F)cc2)CC1 (stereo not drawn) | -12%
O=C(CN1CCCc2c(F)cc(Br)cc21)N1CCN(C(=O)C2CC2)CC1 | 17.8%

Compound | cytotoxicity at 70.5 h
NCC1Cc2cc(-c3nccc(N4CCC(O)CC4)n3)cc(Cl)c2O1 (stereo not drawn) | 5.41%
COCCOc1cccc(CNCc2ccc(-n3cncn3)nc2)c1 | -4.01%
Cc1ccoc1-c1nnc(CN2CCOC(Cn3cccn3)C2)o1 (stereo not drawn) | -2.97%
COc1ccc2c(c1)C(=O)N(C)C1(CCN(CC3CC3)CC1)N2 | 3.49%
CCc1ccc(C(=O)N2CCCC(c3nn[nH]n3)C2)cc1 (stereo not drawn) | -3.67%
O=C(C1CC(c2ccccc2)=NO1)N1CCCCc2ccccc21 (stereo not drawn) | -7.24%
CC(C)N1CCOC[C@H]1c1nc(C(C)(C)C)c[nH]1 | 0.329%
Cc1noc(C)c1-c1cncc(C2CCCN2Cc2ncc[nH]2)n1 (stereo not drawn) | 16.2%
COc1ccc2ncn(Cc3ncc[nH]3)c(=O)c2c1 | 2.5%
Cc1ccc(CN(C)C(=O)CCNS(=O)(=O)c2cccnc2)cc1 | -7.21%
CS(=O)(=O)c1ccccc1NCc1ccc(Cn2ccnc2)cc1 | -0.289%
O=C(N[C@@H]1CN(c2ncccn2)[C@@H]2CCCO[C@@H]21)c1cscn1 | 20.2%
O=C([C@H]1C[C@@H]2CN(c3ncc(F)cn3)C[C@H]1O2)N1CCOCC1 | -7.72%
CCOc1ccccc1C(=O)NCCC(O)c1ccoc1 (stereo not drawn) | 9.07%
CC1CCCCN1C1CN(C(=O)c2sccc2S(N)(=O)=O)C1 (stereo not drawn) | -2.85%
O=C1CSC(c2ccc(O)cc2)c2sccc2N1 (stereo not drawn) | 3%
CN1CCn2c(-c3cnn(C)c3)cnc2C12CCN(CC1CC1)CC2 | -4.02%
Cc1nn(C)c(Oc2ccccc2)c1CNC1CCCCNC1=O (stereo not drawn) | -6.4%
OC(c1cccs1)C1CCN(c2ncccn2)CC1 (stereo not drawn) | -8.6%
CN(CCO)C1CCN(c2ncc3c(n2)CCN3c2ccccc2)CC1 | -3%
Cc1ccccc1CN1C[C@@H]2CC[C@H](C1)N(CC1CCC1)C2=O | -4.63%
CN(C)c1nccc(C2CCCN(C(=O)CO)C2)n1 (stereo not drawn) | -7.31%
COc1ccc(Cc2ncc3c(n2)CN(C(=O)CO)C3)cc1 | -6.42%

Compound | cytotoxicity at 70.5 h
CCOc1ccc(CC(=O)N2CCN(c3nccn3CC)CC2)cc1 | -1.22%
CNS(=O)(=O)c1ccc(CNC(=O)NCc2cc[nH]n2)cc1 | -12.9%
CNc1nc(CNC(=O)Nc2cccc(OC)c2)cs1 | -0.727%
Cc1ccnc(N2CCCC(c3noc(C(C)C)n3)C2)n1 (stereo not drawn) | 6.3%
CCc1nnc(N2C[C@@H](CN(C)CCO)[C@@H](CO)C2)s1 | -12.4%
c1cc(CN2CCCn3nnc(COCC4CC4)c3C2)ccn1 | -15.6%
COc1cc(CN(C)Cc2ccncc2)c(SC)cc1OC | -10.7%
CC(=O)N1CCc2c(nc(N(C)C)nc2NCCCn2ccnc2)C1 | -8.48%
Cc1nn(C)c(Cl)c1C1CCCN1Cc1noc(C2CC2)n1 (stereo not drawn) | -9.55%
CC(=O)N1CCN(c2cc(C3CN(C)CCO3)nc(C)n2)CC1 (stereo not drawn) | -11.6%
O=C(CCn1cccn1)NCCOc1cccc(Cl)c1 | -7.23%
NC[C@H]1CC[C@H](C(NC(=O)c2ccccc2)c2ccccn2)CC1 (stereo partly drawn) | 11.1%
CO[C@@H]1CC[C@H]2[C@H]1OCCN2C(=O)C1CCOCC1 | -15%
CC(C)(CNc1c(C#N)cnc2ccc(Cl)cc12)C(N)=O | -17.7%
c1cc(CN2CCc3ncc(CN4CCCCC4)n3CC2)cs1 | 19.1%
CCN(C)CC1CCN(S(=O)(=O)c2cc(C)c(F)cc2Cl)C1 (stereo not drawn) | -4.14%
CCN1CCOC(CNCc2c(Cl)nc3ccccn23)C1 (stereo not drawn) | -21.6%
Cc1nn(C)c2c(NCc3ccccc3F)nc(C3CC3)nc12 | -5.5%
CC(C)(O)CCc1ccc(C(=O)N2Cc3cnn(CCO)c3C2)cc1 | -11.3%
CC(Cn1ccnc1)NC(=O)C1(c2ccc(F)cc2)CCCC1 (stereo not drawn) | -7.69%
COc1cc(C)c(-c2ccc(F)c3c2OC(CN)C3)cc1C (stereo not drawn) | -0.0935%
CC(C)NC(=O)Nc1ccc2c(c1)ncn2CC(=O)NCCN(C)C | -12.7%
O=C(NCc1csc(Br)c1)Nc1cn[nH]c1 | 39.3%

Compound | cytotoxicity at 70.5 h
O=C(CN1CCc2ccccc2C1)NCc1ccco1 | 3.48%
CC(=O)NC1CCN(c2nc(N)nc3c2CCCC3)C1 (stereo not drawn) | -8.84%
CC(C)C(=O)N1CCCC1C(=O)Nc1cc(C(F)(F)F)ccc1F (stereo not drawn) | -17.3%
CN(C)CCN1CC(C(=O)N2CCC(c3cccc(O)c3)CC2)CC1=O (stereo not drawn) | 2.7%
CCOCC(=O)N1CCCn2c(nnc2Cn2cccc2)C1 | 3.11%
Cn1cc(CN2CCc3onc(COCC4CC4)c3C2)cn1 | -12.8%
CCOc1cc(NC(=O)NCCn2cnnc2CC)ccc1C | -6.28%
COc1c(CNC2CCc3c(F)cccc32)c(C)nn1C (stereo not drawn) | -7.24%
Cc1nn(C)c(C)c1CN1CCN(CC2(O)CCCN(C)C2)CC1 (stereo not drawn) | -10.5%
COc1ccc(-c2cc(CN)nc3ccnn23)cc1 | -12.4%
COc1ccsc1C(=O)N1CCCN(Cc2cscn2)CC1 | -5.36%
CCc1cn[nH]c1C1CCN(C(=O)c2cc(C#N)c(=O)[nH]c2C)CC1 | -3.13%
CC(C)(C)NC(=O)CNC(=O)CCc1ccccc1Br | -8.13%
O=S(=O)(CCO)Cc1ccc(OC(F)F)cc1 | -5.07%
CCc1noc(CN(C)Cc2ccc(N3CCCCC3)cc2)n1 | -7.61%
O=C(NCCc1ccncc1)[C@H]1CC[C@@H]2[C@@H](CCN2C2CCC2)O1 | -7.73%
CCS(=O)(=O)NCCNC(=O)c1cnc(-c2ccccc2)nc1 | -8.98%
CC(NC(=O)NCCCc1n[nH]c(N)c1C#N)c1ccccc1F (stereo not drawn) | 0.683%
COc1cccc(CNC(=O)c2nc3c(o2)CN(S(C)(=O)=O)C3)c1 | -6.24%
Cc1ccc(CN2CCc3c(C(=O)N(C)C)nn(C)c3C2)s1 | -5.06%
Cc1noc(C)c1CN1CC[C@H]2[C@@H]1CCC(=O)N2CC1CCOCC1 | -3.53%
CCc1cnc(N2CCC3(CC2)CN(c2cccnc2)C(=O)CO3)nc1 | 23.8%
CCc1nc(C)ncc1C(=O)N1CCOC(c2nc(C)n[nH]2)C1 (stereo not drawn) | -0.337%

Compound | cytotoxicity at 70.5 h
CN(Cc1cccc(-n2cccn2)c1)C(=O)c1cccc(N(C)C)c1 | -10.6%
Cc1cc(S(=O)(=O)N2CCCN3CCCC3C2)ccc1F (stereo not drawn) | -9.81%
COCC1CN(Cc2cc(C)on2)Cc2cnn(C)c21 (stereo not drawn) | -3.91%
CCOc1ccc(NC(=O)c2[nH]c(C)cc2C)cc1CO | 20.6%
O=C(c1coc(CN2CCN(c3ccccc3F)CC2)n1)N1CCCC1 | 5.68%
COc1ncc(-c2ccc(C(N)=O)cc2)c(OC)n1 | -8.59%
COCC1CN(Cc2ccc(C)o2)Cc2ncn(CC3CC3)c21 (stereo not drawn) | -8.02%
CC(C)C(=O)N1CC[C@H]2N(C)CC[C@@]2(C(=O)Nc2cccnc2)CC1 | -10.9%
COCCCN1CCCN(C(C)c2nc(C3CC3)no2)CC1 (stereo not drawn) | -4.41%
Cc1cc(-c2cnc(N3CCC(O)CC3)nc2-c2cccnc2C)on1 | 8.43%
Cc1ccn(-c2ccccc2NCc2cscn2)n1 | 10.6%
CCN1CCN(c2ccc(CNC(=O)c3cnn(C)c3C)cn2)CC1 | -8.48%
CCC1=N[C@@]2(CC[C@@H]3CN(C(=O)NCC(C)C)C[C@@H]32)C(=O)N1CC1CC1 | -2.4%
CC(=O)N1CCC(NC(=O)N2CCCC2c2ccsc2)CC1 (stereo not drawn) | 6.84%
CC(C)N(CC(=O)O)Cc1cccc(Br)c1 | 2.77%
CNC(=O)[C@@H]1C[C@H](N)CN1S(=O)(=O)c1cc(Cl)c(Cl)s1 | -2.73%
Cc1ccc(S(=O)(=O)N2CCN(CCC#N)CC2)s1 | 7.61%
CCN(CC)S(=O)(=O)c1ccc(C(=O)NC(C)(C#N)C2CC2)cc1 (stereo not drawn) | 19.1%
CC(C)c1cc(NCC(O)c2ccc(F)cc2)n2nccc2n1 (stereo not drawn) | 0.769%
CCN1CCN(C(C)CNC(=O)Nc2cnn(CC)c2)CC1 (stereo not drawn) | -7.65%
O=C1NCCN(C(=O)c2cn3ccsc3n2)C1c1cccc(F)c1 (stereo not drawn) | 25.9%
